EC50, IC50 and outcome data for 71 compounds are collected here from PubChem BioAssay AID179 (DTP/NCI, 2004).

Activity calls are given as the source filed them.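 The calls were made as follows: active = compounds giving half or more protection of infected cells from virus-caused growth loss, again on retest; inactive = the rest.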 Where a SMILES comes first, the peptide text is derived from it. [ ]: non-standard residue; d: D form. The star is where a group is joined. ξ: configuration not given here. Cbz = O=C(OCc1ccccc1)*; Boc = CC(C)(C)OC(=O)*; ξV = CC(C)C(N)C(=O)O; OBn = c1ccc(CO*)cc1

The assay has as its system CEM cells HIV-1 protection, formazan growth assay. The experiment in a line: NCI AIDS Antiviral Assay. As to conditions: for IC50: measured here: growth of uninfected CEM cells. In outline: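 Human CEM cells, uninfected and HIV-1-infected, received five drug concentrations, and growth was read by soluble formazan assay. Compounds giving at least 50% protection were retested; reproducible 100% protection defined confirmed active.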

Take `COc1cc(/C=C2/C(=O)N(C(=O)c3ccc(Cl)cc3)N=C2C)cc(OC)c1OC`: the EC50 was greater than 17.4 µM and the IC50 was greater than 17.4 µM.
Regarding `CCCCCCC(CCl)c1sc(-c2csc(CCNC(=O)OC(C)(C)C)n2)nc1C(=O)OC` (configuration not stated), the EC50 is greater than 200 µM and the IC50 was greater than 200 µM.
On to `CCc1ccccc1NC(=O)C(=O)CC(=O)c1sc(Nc2ccccc2)nc1C`, for which the EC50 was greater than 89.1 µM and the IC50 amounted to 53.7 µM.
Take `NC(CCSSCCC(N)C(=O)O)C(=O)O` (configuration not stated): the EC50 is greater than 19.5 µM and the IC50 was greater than 19.5 µM.
In the case of `CC(C)(CN1CCCCC1)C(=O)/C=C/c1ccc(Br)cc1`, the EC50 is greater than 129 µM and the IC50 turned out to be 1.7 µM.
In the case of `CCN(CC)/C(=C\Cl)Nc1ccccn1`, the EC50 is greater than 759 µM and the IC50 was 117 µM.
Turning to `CN(C)c1ncnc2c1Cc1ccccc1C(=O)N2C`, the EC50 is 60.3 µM and the IC50 was determined as 407 µM.
For `CCC12C=CCN3CCC4(c5cc(C(c6ccc(OC)cc6)c6cc7ccccc7n6S(=O)(=O)c6ccccc6)c(OC)cc5N(C)C4C(O)(C(=O)OC)C1OC(C)=O)C32` (configuration not stated), the EC50 is greater than 8.71 µM and the IC50 was greater than 8.71 µM.
Regarding `COc1ccc(/C(C#N)=C/c2cc(OC)c(OC)c(OC)c2)cc1`, the EC50 is greater than 200 µM and the IC50 stood at 5.75 µM.
Turning to `O=C(O)C(CO)NC(=O)C1CCCN1C(=O)OCc1ccccc1` (stereo not drawn) (Cbz-Pro-Ser-OH; configuration not given here), the EC50 was greater than 77.6 µM and the IC50 is greater than 77.6 µM.
Take `Cc1ccc(/C=C/C(=O)c2cc(CN(C)C)c(O)c(CN(C)C)c2)cc1`: the EC50 is greater than 200 µM and the IC50 was 20.4 µM.
For `Cc1ccc(S(=O)(=O)Nn2c(C)cc3ccc(S(=O)(=O)Nc4ccccc4[N+](=O)[O-])cc3c2=O)cc1`, in that order: greater than 200 µM and 10.2 µM.
For `COC(=O)[C@H](Cc1ccccc1)NP(=O)(O)OCC1OC(n2cc(C)c(=O)[nH]c2=O)CC1N=[N+]=[N-]` (some centres not stated), in that order: 0.0251 µM and 10 µM.
Consider `O=C(O)C1=CC(=C(c2ccc(O)c(C(=O)O)c2)c2ccc(O)c(C(=O)O)c2)C=CC1=O`, for which the EC50 is greater than 1660 µM and the IC50 was greater than 1660 µM.
For `CC(=O)N1C(C(=O)NN2CCOCC2)CSC1c1ccccc1` (configuration not stated), the EC50 is greater than 200 µM and the IC50 is greater than 200 µM.
In the case of `CCCC(S(=O)(=O)c1ccccc1)S(=O)(=O)c1ccccc1`, the result was inactive.
Regarding `CCN(CC)CCNc1ccc(CO)c2oc3ccc(OS(=O)(=O)c4ccc(C)cc4)cc3c(=O)c12`, the EC50 was greater than 51.3 µM and the IC50 worked out at 8.91 µM.
For `N#Cc1ccc(OCCSCCCCCCCCCCSCCOc2ccc(C#N)cc2)cc1`, in that order: greater than 2.88 µM and greater than 2.88 µM.
The like results for `CCC12CCCN(Cc3ccccc3)C1c1c(n(C)c3ccccc13)C(CO)C2` (configuration not stated) were, in that order, greater than 25.7 µM and greater than 25.7 µM.
For `CCCCCCC(=O)COP(=O)(OCC(=O)CCCCCC)OCC1OC(n2cc(C)c(=O)[nH]c2=O)CC1N=[N+]=[N-]` (configuration not stated), in that order: 0.00107 µM and 2 µM.
`COc1ccc(CCC2c3cc(OC)c(OC)cc3CCN2C)cc1OC` (configuration not stated): the EC50 was greater than 676 µM and the IC50 worked out at 240 µM.
For `O=C(NN1C(=O)CSC1c1ccco1)c1ccncc1` (configuration not stated), in that order: greater than 200 µM and greater than 200 µM.
As to `Nc1ccccc1C(=O)CCc1ccccc1C(=O)O`, the outcome was inactive.
With `O=C(O)c1cc(N=Nc2c(O)cc(O)cc2C(=O)O)ccc1/C=C/c1ccc(N=Nc2c(O)cc(O)cc2C(=O)O)cc1C(=O)O`, the EC50 is 87.1 µM and the IC50 worked out at 95.5 µM.
As to `COC(=O)C1CC2CC1C1C2SC(F)(F)C1(F)F` (configuration not stated), the EC50 is greater than 200 µM and the IC50 was greater than 200 µM.
Turning to `COc1ccccc1OCC(O)CO` (configuration not stated), the outcome was inactive.
On the same count and under the same terms, the entry for `CC(=O)c1sc(Nc2nnc(-c3ccc(-c4nnc(Nc5nc(C)c(C(C)=O)s5)o4)cc3)o2)nc1C` is “inactive”.
In the case of `COc1ccc(CCNC(=O)Cc2cc(OC)c(OC)cc2CO)cc1OC`, the EC50 was greater than 200 µM and the IC50 came to 195 µM.
The like results for `O=S(=O)(Cc1nc2ccccc2s1)c1nc2ccccc2s1` were, in that order, greater than 200 µM and 4.79 µM.
For `CC1CCC(O)/C=C/C(=O)OC(C)C(O)/C=C/C(=O)O1` (configuration not stated), in that order: greater than 200 µM and 10 µM.
The like results for `CC(=O)O[C@@H]1C2CCC3C(CC[C@@]4(C)C3CC[C@@H]4C(C)N(C)C)[C@@]2(C)C[C@H](O)[C@@H]1NC(=O)c1ccccc1` (some centres not stated) were, in that order, greater than 1.38 µM and greater than 1.38 µM.
In the case of `Cc1nc2ccccc2c(=O)n1/N=C/c1ccc(N(C)C)cc1`, the EC50 is greater than 200 µM and the IC50 is greater than 200 µM.
In the case of `CC(=O)OC1C(=O)C(O)C(C)OC1O[C@@H]1C[C@@]2(C)[C@@H]3CC=C4[C@@H](C[C@H](O)C(=O)C4(C)C)[C@]3(C)C(=O)C[C@]2(C)[C@H]1[C@@](C)(O)C(=O)/C=C/C(C)(C)O` (some centres not stated), the EC50 was greater than 0.501 µM and the IC50 was determined as 0.0832 µM.
Take `Cc1cn([C@H]2C[C@@H](N(O)C(=O)Nc3ccccc3)[C@@H](CO)O2)c(=O)[nH]c1=O`: the EC50 was greater than 200 µM and the IC50 is greater than 200 µM.
With `CCOC(=O)c1c(C)nc2c3ccccc3c(C#N)c(C)n12`, the EC50 was greater than 100 µM and the IC50 was greater than 100 µM.
With `CCN(c1ccccc1)c1nc(N)nc(NS(=O)(=O)c2cc(C)c(Cl)cc2S)n1`, the EC50 was 70.8 µM and the IC50 was greater than 200 µM.
For `COc1ccc(-c2cn3ccsc3n2)cc1`, in that order: greater than 195 µM and 162 µM.
For `O=S1c2ccccc2N=C(c2cccc3ccccc23)CC1c1cccc2ccccc12` (configuration not stated), in that order: greater than 60.3 µM and greater than 60.3 µM.
On to `CC(C)(C)c1cc2c(O)c(c1)C(c1ccccc1)c1cc(C(C)(C)C)cc(c1O)Cc1cc(C(C)(C)C)cc(c1O)C(c1ccccc1)c1cc(C(C)(C)C)cc(c1O)C2` (configuration not stated), for which the EC50 is greater than 50.1 µM and the IC50 is greater than 50.1 µM.
For `CCOc1ccc(N=NC2C(=O)N(C(=O)CC(=O)Nc3ccccc3)N=C2C)cc1` (configuration not stated), the EC50 is greater than 200 µM and the IC50 worked out at 20.4 µM.
Consider `CCC1C2CC3C4N(C)c5ccccc5C45CC(C2C5O)N3C1O` (configuration not stated), for which the outcome was inactive.
`CN1c2ccccc2N(C(=O)c2ccc([N+](=O)[O-])cc2)C(CC(=O)O)c2cccn21` (configuration not stated): the EC50 is greater than 617 µM and the IC50 turned out to be 240 µM.
For `CC(=O)OCC1OC(n2ccc(=O)[nH]c2=O)C(OC(C)=O)C(OC(C)=O)C1OC(C)=O` (configuration not stated), in that order: greater than 562 µM and greater than 562 µM.
With `O=C(O)C(O[N+](=O)[O-])c1ccccc1` (configuration not stated), the result was inactive.
Consider `CC(=O)Oc1cc2c(n(C)c1=O)-c1ccccc1C2`, for which the EC50 is greater than 200 µM and the IC50 was 6.61 µM.
For `C=CCNC(=S)NC=C(C(N)=O)C(N)=O`, in that order: greater than 200 µM and greater than 200 µM.
For `O=C(NN=C1CCN(Cc2ccccc2)CC1)C(O)(c1ccccc1)c1ccccc1`, in that order: greater than 200 µM and greater than 200 µM.
The like results for `CCOC(=O)c1sc(C(=O)O)cc1-c1cccs1` were, in that order, 234 µM and 501 µM.
Regarding `COCOC1CCCC[C@@]1(OCCOCCO[C@@]1(c2ccccc2)CCCC[C@H]1OCOC)c1ccccc1` (some centres not stated), the EC50 was greater than 5.01 µM and the IC50 is greater than 5.01 µM.
Regarding `COC1CC(OC)C(O)C(CO)O1` (configuration not stated), the outcome was inactive.
Turning to `N=S(=O)(c1ccccc1)c1ccccc1`, the outcome was inactive.
As for `CC(CNN=C(N)N)NN=C(N)N` (configuration not stated), the EC50 was greater than 200 µM and the IC50 is greater than 200 µM.
In the case of `CCOP(=S)(N/N=C\C(C)(C)C1CCCCC1)OCC`, the EC50 is greater than 200 µM and the IC50 turned out to be 30.9 µM.
The like results for `CSc1ncccc1C(=O)[O][Sn]([c]1ccccc1)([c]1ccccc1)[c]1ccccc1` were, in that order, greater than 2 µM and 0.316 µM.
The like results for `CC(C)c1ccccc1NC(=O)CCc1n[nH]c(=S)o1` were, in that order, greater than 324 µM and greater than 324 µM.
For `c1ccc2c(c1)CN1CCCC1CN2` (configuration not stated), in that order: greater than 200 µM and greater than 200 µM.
Take `Cc1ccc(S(=O)(=O)NN=C2C(C)CC(C(C)(C)C)CC2C)cc1` (configuration not stated): the EC50 was greater than 200 µM and the IC50 was determined as 31.6 µM.
For `CCOC(=O)c1c(N2CCCC2)ncn(Cc2ccccc2)c1=S`, in that order: greater than 200 µM and greater than 200 µM.
The like results for `CN(C(=O)C1(C(=O)C=[N+]=[N-])CC1)c1ccccc1` were, in that order, greater than 1020 µM and greater than 1020 µM.
The like results for `CC(C)=CC1CC(=[N+]=[N-])C(=O)C1(C)C` (configuration not stated) were, in that order, greater than 186 µM and greater than 186 µM.
With `CC(C)C(NC(=O)CNC(=O)OC(C)(C)C)C(=O)NCC(=O)OCc1ccccc1` (stereo not drawn) (Boc-Gly-[ξV]-Gly-OBn), the EC50 was greater than 200 µM and the IC50 is greater than 200 µM.
For `CCOC(=O)/C(C(=S)NC)=C(/N)N1CCCC1`, the EC50 was greater than 200 µM and the IC50 is greater than 200 µM.
Turning to `N#CC1(C#N)C2CCCCC23OC(=N)C1(C#N)C(c1ccco1)O3` (configuration not stated), the EC50 is greater than 200 µM and the IC50 stood at 5.75 µM.
For `Cc1ccc2nc3c(C)c(Cl)c(=O)cc-3sc2c1`, in that order: greater than 19.1 µM and 16.2 µM.
For `CC(=O)c1cccc(C(C)=O)c1N=Cc1ccccc1`, the result was inactive.
For the compound `O=C1CCC2(c3ccc(Cl)cc3)SCCN12` (configuration not stated), the EC50 is greater than 200 µM and the IC50 is 145 µM.
The like results for `CC(C)=CCCC(C)C1=C(O)C(=O)C(C)=CC1=O` (configuration not stated) were, in that order, greater than 2 µM and 0.589 µM.
The like results for `CC(O)C(O)C(N)CC=O` (configuration not stated) were, in that order, greater than 200 µM and greater than 200 µM.
Regarding `Cc1ccc(/C=C2/N=C([Se])N(C)C2=O)cc1`, the EC50 is greater than 18.6 µM and the IC50 is greater than 18.6 µM.
For `O=C(O)CC1CCN(C(=O)c2ccccc2)C(Cc2c[nH]c3ccccc23)C1O` (configuration not stated), the EC50 is greater than 126 µM and the IC50 was greater than 126 µM.
Regarding `Cc1[nH]c2ccccc2c1C1CC(=O)NC1=O` (configuration not stated), the outcome was inactive.
